From patent publication US9695155B2, “Herbicidal substituted pyrimidinyloxy benzene compounds” (E. I. DU PONT DE NEMOURS AND COMPANY, priority 2013, dated 2017)

How the values were obtained:
barnyardgrass [1] = assay: Test A postemergence; type: in vivo, Echinochloa crus-galli
In short: (§1)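 Pre- and postemergence greenhouse screen. Soil: loam + sand. Spray carrier: solvent mixture, non-phytotoxic, with surfactant. Post timing at 1–2 leaves, height 2–10 cm. Readout: visual injury on a 0–100 scale roughly 10 days after application, untreated plants as reference.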

giant foxtail [2] = assay: Test A preemergence; type: in vivo, Setaria faberii
In short: as §1

sedge, umbrella = assay: Test B flooded paddy test; type: in vivo, Cyperus difformis; details: Flood, 250 g ai/ha; 0 to 100 scale where 0 is no effect and 100 is complete control
In short: (§2)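 Greenhouse flooded-pot test: compounds dosed into 3 cm standing water over 2-leaf plants, flood held constant. Rated visually after 13–15 days on 0–100 (complete control = 100); a dash marks no test result.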

large (Lg) crabgrass [3] = assay: Test A preemergence; type: in vivo, Digitaria sanguinalis
In short: as §1

Heteranthera limosa = assay: Test B flooded paddy test; type: in vivo; details: Flood, 250 g ai/ha; 0 to 100 scale where 0 is no effect and 100 is complete control
In short: as §2

velvetleaf [4] = assay: Test A postemergence; type: in vivo, Abutilon theophrasti
In short: as §1

morningglory [5] = assay: Test A postemergence; type: in vivo, Ipomoea spp.
In short: as §1

velvetleaf [6] = assay: Test A preemergence; type: in vivo, Abutilon theophrasti
In short: as §1

pigweed [7] = assay: Test A preemergence; type: in vivo, Amaranthus retroflexus
In short: as §1

corn [8] = assay: Test A postemergence; type: in vivo, Zea mays
In short: as §1

barnyardgrass [9] = assay: Test B flooded paddy test; type: in vivo, Echinochloa crus-galli; details: Flood, 250 g ai/ha; 0 to 100 scale where 0 is no effect and 100 is complete control
In short: as §2

wheat [10] = assay: Test A postemergence; type: in vivo, Triticum aestivum
In short: as §1

pigweed [11] = assay: Test A postemergence; type: in vivo, Amaranthus retroflexus
In short: as §1

wheat [12] = assay: Test A preemergence; type: in vivo, Triticum aestivum
In short: as §1

rice = assay: Test B flooded paddy test; type: in vivo, Oryza sativa; details: Flood, 250 g ai/ha; 0 to 100 scale where 0 is no effect and 100 is complete control
In short: as §2

large (Lg) crabgrass [13] = assay: Test A postemergence; type: in vivo, Digitaria sanguinalis
In short: as §1

barnyardgrass [14] = assay: Test A preemergence; type: in vivo, Echinochloa crus-galli
In short: as §1

morningglory [15] = assay: Test A preemergence; type: in vivo, Ipomoea spp.
In short: as §1

giant foxtail [16] = assay: Test A postemergence; type: in vivo, Setaria faberii
In short: as §1

corn [17] = assay: Test A preemergence; type: in vivo, Zea mays
In short: as §1

[18] = 125 g ai/ha, 0 to 100 scale where 0 is no effect and 100 is complete control
[19] = 500 g ai/ha, 0 to 100 scale where 0 is no effect and 100 is complete control
[20] = 500 g ai/ha, 0 to 100 scale, 0 no effect, 100 complete control, approx. 10 days
[21] = 500 g ai/ha, 0 to 100 scale, 0 no effect, 100 complete control

N#Cc1cccc(Oc2ncc(C(F)(F)F)cn2)c1-n1cc(Br)cn1 [Compound 113]
Plant response rating, Barnyardgrass (barnyardgrass [1]; [18]): 0 | Plant response rating, Barnyardgrass (barnyardgrass [1]; [19]): 80 | Plant response rating, Foxtail, Giant (giant foxtail [2]; [18]): 20 | Foxtail, Giant plant response rating (giant foxtail [2]; [20]): 90 | Plant response rating, Sedge, Umbrella (sedge, umbrella): 0 | Plant response rating, Crabgrass, Large (large (Lg) crabgrass [3]; [18]): 80 | Crabgrass, Large plant response rating (large (Lg) crabgrass [3]; [20]): 100 | Plant response rating, Ducksalad (Heteranthera limosa): 0 | Plant response rating, Velvetleaf (velvetleaf [4]; [19]): 80 | Plant response rating, Morningglory (morningglory [5]; [19]): 30 | Plant response rating, Velvetleaf (velvetleaf [6]; [18]): 10 | Plant response rating, Pigweed (pigweed [7]; [18]): 100 | Pigweed plant response rating (pigweed [7]; [20]): 100 | Plant response rating, Corn (corn [8]; [18]): 10 | Plant response rating, Corn (corn [8]; [19]): 60 | Plant response rating, Barnyardgrass (barnyardgrass [9]): 0 | Plant response rating, Wheat (wheat [10]; [19]): 60 | Plant response rating, Pigweed (pigweed [11]; [19]): 80 | Plant response rating, Wheat (wheat [12]; [18]): 0 | Plant response rating, Rice (rice): 0 | Plant response rating, Crabgrass, Large (large (Lg) crabgrass [13]; [18]): 20 | Plant response rating, Crabgrass, Large (large (Lg) crabgrass [13]; [19]): 70 | Plant response rating, Barnyardgrass (barnyardgrass [14]; [18]): 0 | Barnyardgrass plant response rating (barnyardgrass [14]; [20]): 90 | Plant response rating, Morningglory (morningglory [15]; [18]): 0 | Morningglory plant response rating (morningglory [15]; [20]): 30 | Plant response rating, Foxtail, Giant (giant foxtail [16]; [18]): 10 | Plant response rating, Foxtail, Giant (giant foxtail [16]; [19]): 60 | Plant response rating, Corn (corn [17]; [18]): 0 | Corn plant response rating (corn [17]; [20]): 20

FC(F)(F)c1cnc(Oc2ccccc2-n2ccc(C(F)(F)F)n2)nc1 [Compound 4]
Plant response rating, Barnyardgrass (barnyardgrass [1]; [18]): 0 | Plant response rating, Barnyardgrass (barnyardgrass [1]; [21]): 0 | Foxtail, Giant plant response rating (giant foxtail [2]; [18]): 0 | Foxtail, Giant plant response rating (giant foxtail [2]; [20]): 0 | Plant response rating, Sedge, Umbrella (sedge, umbrella): 0 | Crabgrass, Large plant response rating (large (Lg) crabgrass [3]; [18]): 0 | Crabgrass, Large plant response rating (large (Lg) crabgrass [3]; [20]): 0 | Plant response rating, Ducksalad (Heteranthera limosa): 0 | Plant response rating, Velvetleaf (velvetleaf [4]; [18]): 0 | Plant response rating, Velvetleaf (velvetleaf [4]; [21]): 0 | Plant response rating, Morningglory (morningglory [5]; [18]): 0 | Plant response rating, Morningglory (morningglory [5]; [21]): 0 | Velvetleaf plant response rating (velvetleaf [6]; [18]): 0 | Velvetleaf plant response rating (velvetleaf [6]; [20]): 0 | Pigweed plant response rating (pigweed [7]; [18]): 0 | Pigweed plant response rating (pigweed [7]; [20]): 0 | Plant response rating, Corn (corn [8]; [18]): 0 | Plant response rating, Corn (corn [8]; [21]): 0 | Plant response rating, Barnyardgrass (barnyardgrass [9]): 0 | Plant response rating, Wheat (wheat [10]; [18]): 0 | Plant response rating, Wheat (wheat [10]; [21]): 0 | Plant response rating, Pigweed (pigweed [11]; [18]): 0 | Plant response rating, Pigweed (pigweed [11]; [21]): 20 | Wheat plant response rating (wheat [12]; [18]): 0 | Wheat plant response rating (wheat [12]; [20]): 0 | Plant response rating, Rice (rice): 0 | Plant response rating, Crabgrass, Large (large (Lg) crabgrass [13]; [18]): 0 | Plant response rating, Crabgrass, Large (large (Lg) crabgrass [13]; [21]): 0 | Barnyardgrass plant response rating (barnyardgrass [14]; [18]): 0 | Barnyardgrass plant response rating (barnyardgrass [14]; [20]): 0 | Morningglory plant response rating (morningglory [15]; [18]): 0 | Morningglory plant response rating (morningglory [15]; [20]): 0 | Plant response rating, Foxtail, Giant (giant foxtail [16]; [18]): 0 | Plant response rating, Foxtail, Giant (giant foxtail [16]; [21]): 0 | Corn plant response rating (corn [17]; [18]): 0 | Corn plant response rating (corn [17]; [20]): 0

Fc1cc(Oc2ncc(Cl)cn2)c(-n2cc(Br)cn2)cc1F [Compound 196]
Barnyardgrass plant response rating (barnyardgrass [1]; [18]): 10 | Plant response rating, Barnyardgrass (barnyardgrass [1]; [19]): 50 | Foxtail, Giant plant response rating (0 to 100 scale) (giant foxtail [2]; 125 g ai/ha): 50 | Foxtail, Giant plant response rating (giant foxtail [2]; [19]): 90 | Plant response rating, Sedge, Umbrella (sedge, umbrella): 70 | Crabgrass, Large plant response rating (0 to 100 scale) (large (Lg) crabgrass [3]; 125 g ai/ha): 60 | Crabgrass, Large plant response rating (large (Lg) crabgrass [3]; [19]): 100 | Plant response rating, Ducksalad (Heteranthera limosa): 85 | Velvetleaf plant response rating (velvetleaf [4]; [18]): 100 | Plant response rating, Velvetleaf (velvetleaf [4]; [19]): 100 | Morningglory plant response rating (morningglory [5]; [18]): 20 | Plant response rating, Morningglory (morningglory [5]; [19]): 80 | Velvetleaf plant response rating (0 to 100 scale) (velvetleaf [6]; 125 g ai/ha): 20 | Velvetleaf plant response rating (velvetleaf [6]; [19]): 40 | Pigweed plant response rating (0 to 100 scale) (pigweed [7]; 125 g ai/ha): 90 | Pigweed plant response rating (pigweed [7]; [19]): 100 | Corn plant response rating (corn [8]; [18]): 10 | Plant response rating, Corn (corn [8]; [19]): 40 | Plant response rating, Barnyardgrass (barnyardgrass [9]): 20 | Wheat plant response rating (wheat [10]; [18]): 0 | Plant response rating, Wheat (wheat [10]; [19]): 10 | Pigweed plant response rating (pigweed [11]; [18]): 100 | Plant response rating, Pigweed (pigweed [11]; [19]): 100 | Wheat plant response rating (0 to 100 scale) (wheat [12]; 125 g ai/ha): 0 | Wheat plant response rating (wheat [12]; [19]): 0 | Plant response rating, Rice (rice): 0 | Crabgrass, Large plant response rating (large (Lg) crabgrass [13]; [18]): 30 | Plant response rating, Crabgrass, Large (large (Lg) crabgrass [13]; [19]): 90 | Barnyardgrass plant response rating (0 to 100 scale, 0 is no effect, 100 is complete control) (barnyardgrass [14]; 125 g ai/ha): 0 | Barnyardgrass plant response rating (barnyardgrass [14]; [19]): 40 | Morningglory plant response rating (0 to 100 scale) (morningglory [15]; 125 g ai/ha): 0 | Morningglory plant response rating (morningglory [15]; [19]): 0 | Foxtail, Giant plant response rating (giant foxtail [16]; [18]): 30 | Plant response rating, Foxtail, Giant (giant foxtail [16]; [19]): 80 | Corn plant response rating (0 to 100 scale) (corn [17]; 125 g ai/ha): 0 | Corn plant response rating (corn [17]; [19]): 0
